Entries after “also recorded” stand apart in the source; their conditions may differ.
How the values were obtained:
[1] = system: phosphodiesterase enzymes; conditions: background; cited from earlier work
anesthetized dog = conditions: background; cited from earlier work
[2] = system: 3',5'-Cyclic AMP phosphodiesterase (PDE) from lung; test: 3',5'-Cyclic AMP phosphodiesterase (PDE) inhibition, rabbit lung enzyme (Fraction II, low Km); format: biochemical; conditions: relative to theophylline, cAMP about 1.7 × 10^-7 M, 30° C., 10 minutes, pH 7.5
[3] = system: 3',5'-Cyclic AMP phosphodiesterase (PDE) from kidney; test: 3',5'-Cyclic AMP phosphodiesterase (PDE) inhibition, rabbit kidney enzyme (Fraction II, low Km); format: biochemical; conditions: relative to theophylline, cAMP about 1.7 × 10^-7 M, 30° C., 10 minutes, pH 7.5
anesthetized dogs = test: Hemodynamic activity in anesthetized dogs; format: in vivo, dog; conditions: 10 mg/Kg/hr; vehicle DMSO (Saline for 44-46)
Description: Compounds 3, 41, 43-48, 51 were tested in anesthetized dogs for hemodynamic activities including cardiac output, stroke volume and heart rate. For management of low perfusion states such as cardiovascular shock and congestive heart failure, it is desirable to have increased cardiac output and increased stroke volume accompanied by a decrease or no change in heart rate.
% CHANGE OF CARDIAC OUTPUT, STROKE VOLUME AND HEART RATE AT 10 mg/Kg/hr

[4] = Solubility noted in the PDE test (Insoluble); format: physicochemical; conditions: compound not tested for PDE inhibition
Description: With respect to the compounds which are indicated in Tables I, II and III as being insoluble, although such compounds have not undergone the inhibitory test of Example XVI, due to the similarity in structure to compounds which were tested, it is expected that in vivo testing of the compounds in forms other than solution will readily indicate phosphodiesterase enzyme inhibitory capability.

[5] = system: isolated guinea pig heart preparation; test: Coronary dilation in isolated guinea pig heart preparation; conditions: 10 μg/ml, preliminary
[6] = system: isolated guinea pig uteri; test: Smooth muscle relaxation of isolated guinea pig uteri; conditions: 2-10 μg/ml
rats [7] = test: Anti-inflammatory test (Winter et al.), foot volume in rats; format: in vivo, rat; conditions: oral, 100 mg/kg
Description: Following the procedure of C. A. Winter, et al as described in the Proc. Exper.

[8] = system: isolated guinea pig heart preparation; test: Inotropic effect in isolated guinea pig heart preparation; conditions: 10 μg/ml
rats [9] = test: Hypotensive activity (Weeks and Jones), mean blood pressure in rats; format: in vivo, rat; conditions: oral
Description: Exper. Therap., 104, 646 (1960). At an oral dose of 50 mg/kg in rats, there was a % decrease in mean blood pressure at 1, 3, 6 hours of 11%, 13%, and 24%, respectively.

SMILES: Cc1cc(C)n2ncc(Br)c2n1 [3-bromo-5,7-dimethylpyrazolo[1,5a]pyrimidine]
- phosphodiesterase inhibition [1]: significantly more active than theophylline against various phosphodiesterase enzymes
- positive inotropic effect (anesthetized dog): positive inotropic effect

SMILES: Cc1cc(C)n2nc(SCc3ccccc3)nc2n1 [Compound 3, 2-benzylthio-5,7-dimethyl-s-triazolo[1,5a]pyrimidine]
- PDE Lung; α (I50 theophylline / I50 compound) [2]: 2.50
- PDE Kidney; α (I50 theophylline / I50 compound) [3]: 2.10
- % change of cardiac output (anesthetized dogs): -1%
- % change of heart rate (anesthetized dogs): -7%
- % change of stroke volume (anesthetized dogs): -7%

SMILES: Cc1cc(C)n2nc(SCc3cc4c(cc3Cl)OCO4)nc2n1 [Compound 16]
- Solubility [4]: Insoluble

SMILES: Cc1cc(C)n2nc(SCc3c(C)ccc4ccccc34)nc2n1 [Compound 17]
- Solubility [4]: Insoluble

SMILES: Cc1cc(O)n2nc(SCc3ccccc3)nc2n1 [Compound 24, 2-benzylthio-7-hydroxy-5-methyl-s-triazolo[1,5a]pyrimidine]
- PDE Lung; α (I50 theophylline / I50 compound) [2]: 0.75
- PDE Kidney; α (I50 theophylline / I50 compound) [3]: 0.75
- coronary dilation [5]: coronary dialation
- smooth muscle relaxation [6]: smooth muscle relaxants
- anti-inflammatory activity (rats [7]): significant activity
- inhibition of foot volume (rats [7]): 43%

SMILES: CCN(CC)c1cc(C)nc2nc(SCc3ccccc3)nn12 [Compound 27, 2-benzylthio-7-diethylamino-5-methyl-s-triazole[1,5a]pyrimidine]
- PDE Lung; α (I50 theophylline / I50 compound) [2]: 4.20
- PDE Kidney; α (I50 theophylline / I50 compound) [3]: 2.30
- coronary dilation [5]: coronary dialation
- smooth muscle relaxation [6]: smooth muscle relaxants

SMILES: Cc1cc(N(CCO)CCO)n2nc(SCc3ccccc3)nc2n1 [Compound 29, 2-benzylthio-7-[bis(β-hydroxyethyl)amino]-5-methyl-s-triazolo[1,5a]pyrimidine]
- PDE Lung; α (I50 theophylline / I50 compound) [2]: 2.10
- PDE Kidney; α (I50 theophylline / I50 compound) [3]: 2.30
- coronary dilation [5]: coronary dialation
- positive inotropic effect [8]: positive inotropic effect
- smooth muscle relaxation [6]: smooth muscle relaxants

SMILES: Cc1cc(NN)n2nc(SCc3ccccc3)nc2n1 [Compound 32, 2-benzylthio-7-hydrazino-5-methyl-s-triazolo[1,5a]pyrimidine]
- Solubility [4]: Insoluble
- hypotensive activity (rats [9]; 25 mg/kg): significant hypotensive activity
- hypotensive activity (rats [9]; 50 mg/kg): significant hypotensive activity
- % decrease in mean blood pressure at 1 hour (rats [9]; 50 mg/kg, 1 hour): 11%
- % decrease in mean blood pressure at 3 hours (rats [9]; 50 mg/kg, 3 hours): 13%
- % decrease in mean blood pressure at 6 hours (rats [9]; 50 mg/kg, 6 hours): 24%

SMILES: CCOC(=O)c1cnc2nc(SCc3ccccc3)nn2c1Cl [Compound 35, 2-benzylthio-6-carbethoxy-7-chloro-s-triazolo[1,5a]pyrimidine]
- Solubility [4]: Insoluble

SMILES: CCOC(=O)c1cnc2nc(SCc3ccccc3)nn2c1NCc1ccccc1 [Compound 37]
- Solubility [4]: Insoluble

SMILES: CCOC(=O)c1cnc2nc(SCc3ccccc3)nn2c1NCCO [Compound 38]
- Solubility [4]: Insoluble

SMILES: CCCNc1c(C(=O)OCC)cnc2nc(SCc3ccccc3)nn12 [Compound 39, 2-benzylthio-6-carbethoxy-7-n-propylamino-s-triazolo[1,5a]pyrimidine]
- PDE Lung; α (I50 theophylline / I50 compound) [2]: 21.0
- PDE Kidney; α (I50 theophylline / I50 compound) [3]: 7.0
- coronary dilation [5]: coronary dialation

SMILES: CCOC(=O)c1cnc2nc(SCc3ccccc3)nn2c1S [Compound 40, 2-BENZYLTHIO-6-CARBETHOXY-7-MERCAPTO-s-TRIAZOLO[1,5a] PYRIMIDINE]
- Solubility [4]: Insoluble

SMILES: CCCc1cc(CCC)n2nc(SCc3ccccc3)nc2n1 [Compound 41, 2-benzylthio-5,7-di-n-propyl-1,2,4-triazolo[1,5a]pyrimidine]
- % change of cardiac output (anesthetized dogs): +23%
- % change of heart rate (anesthetized dogs): -4.2%
- % change of stroke volume (anesthetized dogs): +27%

SMILES: CCCc1cc(CCC)n2nc(SCc3ccc(C)cc3)nc2n1 [Compound 43, 5,7-di-n-propyl-2-(4-methylbenzyl)thio-1,2,4-triazolo[1,5a]pyrimidine]
- % change of cardiac output (anesthetized dogs): +34.3%
- % change of heart rate (anesthetized dogs): -2.8%
- % change of stroke volume (anesthetized dogs): +3.8%

SMILES: CCCc1cc(CCC)n2nc(SCc3ccc(C(=O)O)cc3)nc2n1 [Compound 44, 5,7-di-n-propyl-2-(4-carboxybenzyl)thio-1,2,4-triazolo[1,5a]pyrimidine]
- % change of cardiac output (anesthetized dogs): +18%
- % change of heart rate (anesthetized dogs): +0.2%
- % change of stroke volume (anesthetized dogs): +18%

SMILES: CCCc1cc(CCC)n2nc(SCc3ccncc3)nc2n1 [Compound 45, 5,7-di-n-propyl-2-(4-picolyl)thio-1,2,4-triazolo[1,5a]pyrimidine]
- % change of cardiac output (anesthetized dogs): +27%
- % change of heart rate (anesthetized dogs): -8.1%
- % change of stroke volume (anesthetized dogs): +39%

SMILES: CCCc1cc(CCC)n2nc(SCc3cccnc3)nc2n1 [Compound 46, 5,7-di-n-propyl-2-(3-picolyl)thio-1,2,4-triazolo[1,5a]pyrimidine]
- % change of cardiac output (anesthetized dogs): +20%
- % change of heart rate (anesthetized dogs): -10.9%
- % change of stroke volume (anesthetized dogs): +35%

SMILES: CCCc1cc(CCC)n2nc(S(=O)(=O)Cc3ccccc3)nc2n1 [Compound 47, 2-benzylsulfonyl-5,7-di-n-propyl-1,2,4-triazolo[1,5a]pyrimidine]
- % change of cardiac output (anesthetized dogs): +35.6%
- % change of heart rate (anesthetized dogs): +0.2%
- % change of stroke volume (anesthetized dogs): +34.7%

SMILES: CCCc1cc(CCC)n2nc(S(=O)(=O)Cc3ccc(C)cc3)nc2n1 [Compound 48, 5,7-di-n-propyl-2-(4-methylbenzyl)sulfonyl-1,2,4-triazolo[1,5a]pyrimidine]
- % change of cardiac output (anesthetized dogs): +16.4%
- % change of heart rate (anesthetized dogs): -14.3%
- % change of stroke volume (anesthetized dogs): +36.1%

SMILES: CC(=O)Cc1cc(C)nc2nc(SCc3ccccc3)nn12 [Compound 51, 2-BENZYLTHIO-5-METHYL-7-(2-ACETONYL)-1,2,4-TRIAZOLO [1,5a]PYRIMIDINE]
- % change of cardiac output (anesthetized dogs): +46.2%
- % change of heart rate (anesthetized dogs): +3.3%
- % change of stroke volume (anesthetized dogs): +42.0%

SMILES: Cn1c(=O)c2[nH]cnc2n(C)c1=O [Theophylline]
- phosphodiesterase inhibition [1]: does not selectively inhibit phosphodiesterase; also recorded: not as potent as a phosphodiesterase inhibitor as is desired
